Where two headings read alike, the source gives them in different places.
How the values were obtained:
Ad2.2 pre-mRNA = test: In vitro splicing (IVS) assay with HeLa nuclear extract, RT-qPCR of spliced product; type: biochemical; conditions: payload, HELA.2, read-out: qPCR-IVS-ATS GMean IC50 (nM) Ad2.2 HELA.2
Protocol: 2.1 In Vitro Splicing (IVS)
To evaluate payload activity in a cell-free system, an in vitro splicing assay was performed. The payloads were incubated with nuclear extracts and pre-mRNA substrate minigenes.
HeLa nuclear extract preparation: HeLa S3 cell pellets were resuspended in hypotonic buffer (10 mM HEPES pH 7.9, 1.5 mM MgCl2, 10 mM KCl, 0.2 mM PMSF, 0.5 mM DTT) and the suspension was brought up to a total of 5 packed cell volume (PCV). After centrifugation, the supernatant was discarded, and the cells were brought up to 3 PCV with hypotonic buffer and incubated on ice for 10 min. Cells were lysed using a dounce homogenizer and then centrifuged. The supernatant was discarded, and the pellet was resuspended with […] packed nuclear volume (PNV) of low salt buffer (20 mM HEPES pH 7.9, 1.5 mM MgCl2, 20 mM KCl, 0.2 mM EDTA, 25% glycerol, 0.2 mM PMSF, 0.5 mM DTT), followed by 1/2 PNV of high salt buffer (same as low salt buffer except 1.4 M KCl). The nuclei were gently mixed for 30 min before centrifuging. The supernatant (nuclear extract) was then dialyzed into storage buffer (20 mM HEPES pH 7.9, 100 mM KCl, 0.2 mM EDTA, 20% glycerol, 0.2 mM PMSF, 0.5 mM DTT). Protein concentration was determined using NanoDrop 8000 UV-Vis spectrophotometer (ThermoFisher Scientific).
IVS: All Ad2-derived sequences (Pellizzoni et al. (1998) Cell 95(5):615-24) were cloned into pcDNA3.1(+) vector (Promega) using 5′ EcoRI and 3′ Xbal restriction sites. The plasmids were linearized using Xbal and used as DNA templates in in vitro transcription reactions. The FtzΔi intron-less plasmid (Luo and Reed (1999) 96(26):14937-42) was linearized using EcoRI. All RNAs were in vitro transcribed and then purified using MEGAScript T7 (Invitrogen) and MegaClear (Invitrogen) kits, respectively. For splicing reactions using Ad2 variant pre-mRNAs, […] were prepared using 8 μg nuclear extracts prepared from HeLa S3, 2 ng pre-mRNA, 0.2 ng FTZΔi, and varying concentrations of compounds or DMSO. After a 15 min pre-incubation at 30° C., 1 μL splicing activation buffer (0.5 mM ATP, 20 mM creatine phosphate, 1.6 mM MgCl2) was added, and the reactions were incubated for 90 min at 30° C. The reactions were then quenched with 13 μL DMSO, and 25 nL was used for RT-qPCR. RT-qPCR reactions were prepared using TaqMan RNA-to-CT 1-step kit (Life Technologies), RNA from splicing reactions, Ad2 (forward: […]; reverse: […]; probe: CTGTTGGGCTCGCGGTTG) and Ftz (forward: […]; reverse: […]; probe: […]) mRNA primer-probe sets. Prism 7 (Graphpad) was used for non-linear regression curve fitting of the formed spliced product and normalized to the control (DMSO) sample.

Ad2.1 = test: In vitro splicing (IVS) assay, qPCR-IVS-ATS, Ad2.1 substrate, HELA.2; type: biochemical; conditions: payload, read-out: qPCR-IVS-ATS GMean IC50 (nM) Ad2.1 HELA.2
NCIH1650.1 = test: Herboxidiene splicing modulator cell potency, CTGlo-ATS, NCIH1650.1, 72 h; type: cell-based
THP1.1 = test: Herboxidiene splicing modulator cell potency, CTGlo-ATS, THP1.1, 72 h; type: cell-based
SF3b complex = SF3b complex (Homo sapiens, UniProt O75533+Q7RTV0); test: Payload binding to the SF3b complex (SF3B1 binding); conditions: SF3B1 (WT), HELA.2, read-out: SPA-ATS GMean IC50 (nM) SF3B1 (WT) HELA.2
Protocol: Exemplary herboxidiene spliceosome modulator payloads used in the preparation of ADCs were profiled. Payloads were evaluated for binding to the SF3b complex, in vitro splicing activity, and ability to inhibit cell growth.

[1] = Caco-2 permeability of ADC payload; type: in vitro ADME; conditions: human, payload at 10 μM, 2 hours, apical to basolateral, read-out: Permeability Mean Caco-2 A-B Perm
Protocol: 3.5.2 Caco-2 Permeability of ADC Payload
Caco-2 cells were cultured for 21 days in transwell 24-well plates at 37° C., 95% humidity, 5% CO2. Integrity of cell monolayer was confirmed by TEER (transepithelial electrical resistance) and Lucifer yellow. Payloads were spiked in duplicate at 10 μM, separately, on both sides of the cell monolayer. Permeability rates from the apical to basolateral (A-B) direction and the basolateral to apical (B-A) direction were determined by sampling aliquots from both chambers immediately after treatment (t=0) and following incubation for 2 hours. Samples were protein precipitated with organic solvent containing internal standard and analyzed by LC-MS/MS (SCI EX; API 5500). The area ratio responses of payload/internal standard over time in both directions were used to generate permeability (cm/sec) values. Efflux ratio was calculated by dividing B-A/A-B. Control compounds for low and high permeability and efflux behaved as expected.

[2] = payload, NCIH1650.1, read-out: CTGIo-ATS GMean GI50 (nM) 72 h NCIH1650.1
[3] = payload, THP1.1, read-out: CTGIo-ATS GMean GI50 (nM) 72 h THP1.1
[4] = read-out: CTGIo-ATS GMean GI50 (nM) 72 h NCIH1650.1
[5] = read-out: CTGIo-ATS GMean GI50 (nM) 72 h THP1.1

SMILES	IC50 (Ad2.2 pre-mRNA)	IC50 (Ad2.1)	CTGIo-ATS GMean LD50 (nM) 72 h NCIH1650.1 (NCIH1650.1; payload)	CTGIo-ATS Mean MinResponse % 72 h NCIH1650.1 (NCIH1650.1; payload)	GI50 (NCIH1650.1; [2])	CTGIo-ATS GMean LD50 (nM) 72 h THP1.1 (THP1.1; payload)	CTGIo-ATS Mean MinResponse % 72 h THP1.1 (THP1.1; payload)	GI50 (THP1.1; [3])	GI50 (NCIH1650.1; [4])	GI50 (THP1.1; [5])	IC50 (SF3b complex)	Papp A→B at 2 h, 10 μM [1]
CNC1CCN(C(=O)O[C@@H]2C[C@H](CC(=O)O)O[C@H](/C(C)=C/C=C/[C@@H](C)C[C@@]3(C)O[C@@H]3[C@H](C)[C@@H](OC)[C@@H](C)O)[C@H]2C)C1 (stereo partly drawn) [Compound H3, 2-((2R,4R,5S,6S)-6-((S,2E,4E)-7-((2R,3R)-3-((2R,3R,4R)-4-hydroxy-3-methoxypentan-2-yl)-2-methyloxiran-2-yl)-6-methylhepta-2,4-dien-2-yl)-5-methyl-4-((3-(methylamino)pyrrolidine-1-carbonyl)oxy)tetrahydro-2H-pyran-2-yl)acetic acid]	35.2 nM	562 nM	>10000 nM	19.182%	115 nM	478.332 nM	−92.943%	54.6 nM				
CO[C@H]([C@@H](C)[C@H]1O[C@]1(C)C[C@H](C)/C=C/C=C(\C)[C@H]1O[C@@H](CC(=O)N[C@@H](CCCOC(=O)N2CCNCC2)C(=O)O)CC[C@@H]1C)[C@@H](C)O [Compound H4, (S)-2-(2-((2R,5S,6S)-6-((S,2E,4E)-7-((2R,3R)-3-((2R,3R,4R)-4-hydroxy-3-methoxypentan-2-yl)-2-methyloxiran-2-yl)-6-methylhepta-2,4-dien-2-yl)-5-methyltetrahydro-2H-pyran-2-yl)acetamido)-5-((piperazine-1-carbonyl)oxy)pentanoic acid]	29.6 nM	31.6 nM	2575.18 nM	728.583%		5337.399 nM	−40.902%		464 nM	649 nM	14.5 nM	19.3 ×10⁻⁶ cm/s
CO[C@H]([C@@H](C)[C@H]1O[C@]1(C)C[C@H](C)/C=C/C=C(\C)[C@H]1O[C@@H](CNC(=O)CCCCCOC(=O)N2CCCNCC2)CC[C@@H]1C)[C@@H](C)O [Compound H6, 6-((((2R,5S,6S)-6-((S,2E,4E)-7-((2R,3R)-3-((2R,3R,4R)-4-hydroxy-3-methoxypentan-2-yl)-2-methyloxiran-2-yl)-6-methylhepta-2,4-dien-2-yl)-5-methyltetrahydro-2H-pyran-2-yl)methyl)amino)-6-oxohexyl 1,4-diazepane-1-carboxylate]	7.19 nM	9.51 nM	1.336 nM	0.978%		6.522 nM	−101.275%		0.219 nM	0.701 nM		5.72 ×10⁻⁶ cm/s
CNC1CCN(C(=O)OCCCCCC(=O)NC[C@H]2CC[C@H](C)[C@@H](/C(C)=C/C=C/[C@@H](C)C[C@@]3(C)O[C@@H]3[C@H](C)[C@@H](OC)[C@@H](C)O)O2)C1 (stereo partly drawn) [Compound H7, 6-((((2R,5S,6S)-6-((S,2E,4E)-7-((2R,3R)-3-((2R,3R,4R)-4-hydroxy-3-methoxypentan-2-yl)-2-methyloxiran-2-yl)-6-methylhepta-2,4-dien-2-yl)-5-methyltetrahydro-2H-pyran-2-yl)methyl)amino)-6-oxohexyl 3-(methylamino)pyrrolidine-1-carboxylate]	12.1 nM	14.5 nM	>10000 nM	5.754%	0.772 nM	6.756 nM	−99.328%	0.65 nM				
CO[C@H]([C@@H](C)[C@H]1O[C@]1(C)C[C@H](C)/C=C/C=C(\C)[C@H]1O[C@@H](CNC(=O)CCOCCOC(=O)N2CCNCC2)CC[C@@H]1C)[C@@H](C)O [Compound H8, 2-(3-((((2R,5S,6S)-6-((S,2E,4E)-7-((2R,3R)-3-((2R,3R,4R)-4-hydroxy-3-methoxypentan-2-yl)-2-methyloxiran-2-yl)-6-methylhepta-2,4-dien-2-yl)-5-methyltetrahydro-2H-pyran-2-yl)methyl)amino)-3-oxopropoxy)ethyl piperazine-1-carboxylate]	12.9 nM	12.9 nM	>10000 nM	17.053%	1.1 nM	11.851 nM	−102.030%	1.22 nM				
CO[C@H]([C@@H](C)[C@H]1O[C@]1(C)C[C@H](C)/C=C/C=C(\C)[C@H]1O[C@@H](CNC(=O)CCOCCOC(=O)N2CCCNCC2)CC[C@@H]1C)[C@@H](C)O [Compound H9, 2-(3-((((2R,5S,6S)-6-((S,2E,4E)-7-((2R,3R)-3-((2R,3R,4R)-4-hydroxy-3-methoxypentan-2-yl)-2-methyloxiran-2-yl)-6-methylhepta-2,4-dien-2-yl)-5-methyltetrahydro-2H-pyran-2-yl)methyl)amino)-3-oxopropoxy)ethyl 1,4-diazepane-1-carboxylate]	8.66 nM	9.68 nM	2.681 nM	2.327%		14.441 nM	−101.645%		0.481 nM	1.34 nM		11.6 ×10⁻⁶ cm/s
CNC1CCN(C(=O)OCCOCCC(=O)NC[C@H]2CC[C@H](C)[C@@H](/C(C)=C/C=C/[C@@H](C)C[C@@]3(C)O[C@@H]3[C@H](C)[C@@H](OC)[C@@H](C)O)O2)C1 (stereo partly drawn) [Compound H10, 2-(3-((((2R,5S,6S)-6-((S,2E,4E)-7-((2R,3R)-3-((2R,3R,4R)-4-hydroxy-3-methoxypentan-2-yl)-2-methyloxiran-2-yl)-6-methylhepta-2,4-dien-2-yl)-5-methyltetrahydro-2H-pyran-2-yl)methyl)amino)-3-oxopropoxy)ethyl 3-(methylamino)pyrrolidine-1-carboxylate]	16.5 nM	21.7 nM	>10000 nM	9.194%	3.04 nM	21.021 nM	−98.789%	2.06 nM				
